{
  "source": "paper PMC10983001",
  "about": "“Development of Cytotoxic GW7604-Zeise’s Salt Conjugates as Multitarget Compounds with Selectivity for Estrogen Receptor- Positive Tumor Cells” (Journal of Medicinal Chemistry, 2024)",
  "key": {"[1]": {"conditions": "30 μM, DMEM + 10% FCS, 37 °C, dark", "method": "After protein precipitation with ice-cold methanol (MeOH), the compounds remaining in solution were analyzed by HPLC and electrospray ionization high-resolution mass spectrometry (ESI-HR-MS).\nThe solution was then incubated for 4 h at 37 °C in the dark. Proteins were precipitated upon addition of 33 mL of ice-cold MeOH, and the mixture was stored for 2 h at −20 °C. The supernatant was then separated by centrifugation (3000 rpm), collected, and dried by lyophilization. The lyophilizate was extracted three times with 5 mL of MeOH and finally dried under reduced pressure. The residue was taken up in 1 mL of HPLC-grade MeOH, and 30 μL thereof was analyzed by HPLC and ESI-HR-MS."}, "plasmid pSport1": {"test_system": "plasmid pSport1", "assay": "DNA interference assay (gel electrophoresis)", "format": "binding", "conditions": "20 μM, 4 h, 37 °C", "protocol": "Therefore, the general possibility of DNA interaction was examined by incubating the complex with the empty plasmid pSport1 at a concentration of 20 μM for 4 h at 37 °C. The gel electrophoretic separation[60] […] The ladder structure differs from both the untreated sample (Figure 9A) and the solvent control (Figure 9B) and is similar to that of Cisplatin (Figure 9C).\nTwo μL (conc. 0.5 μg/μL) of an empty pSport1 (4109 base pairs) plasmid was mixed with 2 μL of each test compound (200 μM in DMF) and diluted with 16 μL of nuclease-free water to reach a final concentration of 20 μM for GW7604-Pent-PtCl3 and […] for Cisplatin. Afterward, this mixture was incubated for 4 h at 37 °C under gentle shaking. Samples were loaded with gel loading buffer on agarose gel [0.5% (w/v) in 1 × TRIS-acetate-EDTA (TAE) buffer + 0.004% Midori Green Advance]. The following running parameters were used: 95 min at 3 V/cm in 1 × TAE buffer. Images were visualized under UV light (254 nm)."}, "MCF-7 cells [2]": {"test_system": "MCF-7 cells", "assay": "Cellular uptake (platinum by HR-CS-AAS), MCF-7", "format": "cell-based, human", "conditions": "MCF-7, 20 μM", "protocol": "In order to reach the DNA, the complexes must first pass through the cell membrane and penetrate into the nuclei. Therefore, the cellular uptake kinetics of GW7604-Alk-PtCl3 complexes were studied using the example of GW7604-Pent-PtCl3. This complex and Cisplatin, respectively, were incubated at a concentration of 20 μM with MCF-7 or SKBr3 cells. After various time points [i.e., 0 (3 min), 0.5, 1, 2, 4, and 8 h], cell pellets were prepared, and the platinum content was quantified by high-resolution continuum source atomic absorption spectrometry (HR-CS-AAS).[52]\nAfter thawing of the cell/nuclei pellets, they were resuspended in ultrapure water (Siemens LaboStar, Günzburg, Germany; 300 μL) and lyzed with a sonotrode (Bandelin Sonoplus, Berlin, Germany; parameters 20 s, 9 cycles, 80% power). Graphite furnace (GF) AAS was used to quantify the lysates concerning their content of platinum (λ = 265.9450 nm). For this purpose, a contrAA 700 High-Resolution-Continous Source AAS (Analytik Jena, Jena, Germany) was employed, while atomization took place by electrothermal heating of graphite tubes with an inserted platform (Analytik Jena, Jena, Germany). A time–temperature program reported in the literature[25] was followed with minor adjustments. The liquid samples kept in 0.5 mL polystyrene vials (Gesellschaft für Analysentechnik, Salzwedel, Germany) were injected directly into the pyrolytically coated tubes using an MPE 60 autosampler (Analytik Jena, Jena, Germany). Throughout the measurements, argon (Alphagaz 1, 99.999%, Air Liquide, Düsseldorf, Germany) served as the purge and protective gas. The spectrometer was monitored with the ASpect CS software, version 2.3.1.0 (Analytik Jena, Jena, Germany). For all runs, the mean integrated absorbance was determined after three injections of each standard or sample. Calibration was performed by an appropriate dilution of a solution of Cisplatin (Sigma-Aldrich, Taufkirchen, Germany) obtaining five standards (2–10 μg/L, R^2 ≥ 0.982). Each cell/nuclei lysate was quantified concerning its protein content following the method of Bradford[71] in order to express the uptake as the amount of compound (pmol) in the lysate relative to its protein mass (mg). Therefore, solutions of Albumin fraction V (Carl Roth, Karlsruhe, Germany) diluted with ultrapure water were adduced for the calibration (six standards, 50–300 μg/mL, R^2 ≥ 0.996). A volume of 20 μL of the Albumin standards or the lysates was added to a 96-well plate (Sarstedt, Nürmbrecht, Germany) and supplemented with 200 μL of Bradford’s reagent (Roti-Nanoquant, Carl Roth, Karlsruhe, Germany; diluted 5-fold with ultrapure water). All standards and lysates were measured in duplicate. After incubating for 5 min at rt, the absorbance (λ = 595 nm) was read on a microplate reader (Tecan Safire 2, Männedorf, Switzerland). The cellular/nuclear uptake (pmol complex/mg protein) is given as the mean ± SD of 2 independent experiments.\nFor cellular uptake studies, 1.0 × 10^6 of MCF-7 and SKBr3 cells in their exponential growing phase were seeded into 25 cm^2 cell culture flasks and incubated for 24 h under a humidified atmosphere (5% CO2/95% air) at 37 °C. Stock solutions of the platinum complexes (GW7604-Pent-PtCl3, Cisplatin) in DMF were freshly prepared and diluted with complete DMEM containing 10% FCS to the desired concentration [final DMF concentration of 0.1% (v/v), final complex concentration of 20 μM]. The medium in the cell culture flasks was replaced with 3 mL of fresh cell culture medium containing the compounds, and the flasks were incubated under a humidified atmosphere at 37 °C for 3 min, 0.5, 1, 2, 4, and 8 h. Cell pellets were prepared by removing the medium, washing two times with phosphate-buffered saline (PBS), and detaching the cells with Accutase (GE Healthcare, BioSciences, Chicago, IL, USA). Subsequently, cells were pelleted by centrifugation (4 °C, 380g, 3 min). […]"}, "MCF-7 cells [3]": {"test_system": "MCF-7 cells", "assay": "MTT assay of metabolic activity, MCF-7", "format": "cell-based, human", "conditions": "72 h, MTT; read-out: IC50 MCF-7", "protocol": "The GW7604-Alk-PtCl3 complexes (with exclusion of GW7604-Prop-PtCl3) were investigated for cytotoxic effects in SKBr3 (ER-negative, COX-2-positive, Figure 6), MCF-7 (ERα-positive, COX-negative, Figure 6), and noncancerous TSA-201 (human embryonal kidney) cells at concentrations of 10–30 μM using an established MTT (3-(4,5-dimethylthiazol-2-yl)-2,5-diphenyltetrazolium bromide) assay.[60],[69]\nAfter incubation for 72 h, the amounts of surviving, metabolically active cells were quantified based on their ability to transform the water-soluble yellow dye MTT to a purple formazan, which can be analyzed by UV–vis spectroscopy.\nThe exponentially growing cells were seeded at a density of 1750 (MCF-7), 2000 (SKBr3), and 1250 (TSA-201) cells/well into clear flat-bottom 96-well plates in triplicate. Following 24 h of incubation at 37 °C in a humidified atmosphere (5% CO2/95% air), the compounds [freshly prepared stock solutions in DMF, diluted with DMEM to the desired concentration (final DMF concentration of 0.1% (v/v))] were added to reach the indicated concentrations. After another 72 h of incubation, the cellular metabolic activity was measured employing an MTT assay. By adding predissolved MTT reagent in PBS at a final concentration of 0.5 mg/mL, the metabolic activity can be determined via an enzymatic conversion to a purple formazan salt. After 3 h, the medium was aspirated, and 200 μL of DMSO was added to dissolve the formed formazan crystals. The absorbance was measured at 570 and 690 nm (turbidity assessment) using an EnSpire plate reader (PerkinElmer, Waltham, MA, USA). Solvent-treated cells without a compound served as the positive control. Metabolic activity was calculated by the following equation [drawing 1]"}},
  "data": [
    {"smiles": "CCC(=C(c1ccc(O)cc1)c1ccc(C=CC(=O)OCCC[CH]2[CH2][Pt-]2([Cl])([Cl])[Cl])cc1)c1ccccc1.[K+]", "note": "(mixture of isomers) [GW7604-Pent-PtCl3, Potassium trichlorido[η^2-(pent-4-en-1-yl (E)-3-(4-((E/Z)-1-(4-hydroxyphenyl)-2-phenylbut-1-en-1-yl)phenyl)acrylate)]platinate(II)]", "values": [
      {"measurement": "time to complete degradation in cell culture medium", "setting": "[1]", "result": "≤ 4", "unit": "h"},
      {"measurement": "interaction with plasmid DNA", "setting": "plasmid pSport1", "result": "binds to DNA"},
      {"measurement": "intracellular platinum amount", "setting": "MCF-7 cells [2]; 0.5 h", "result": 130, "unit": "pmol/mg"},
      {"measurement": "intracellular platinum amount", "setting": "MCF-7 cells [2]; 1 h", "result": 265, "unit": "pmol/mg"},
      {"measurement": "intracellular platinum amount", "setting": "MCF-7 cells [2]; 2 h", "result": 371, "unit": "pmol/mg"},
      {"measurement": "intracellular platinum amount", "setting": "MCF-7 cells [2]; 4 h", "result": 659, "unit": "pmol/mg"},
      {"measurement": "intracellular platinum amount", "setting": "MCF-7 cells [2]; 8 h", "result": 818, "unit": "pmol/mg"},
      {"measurement": "IC50", "setting": "MCF-7 cells [3]", "result": 19.6, "unit": "µM"}
    ]}
  ]
}
